According to ChEMBL document CHEMBL1614632, “Trend analysis of a database of intravenous pharmacokinetic parameters in humans for 670 drug compounds” (Drug Metab Dispos, 2008):

Experiments:
clinical [1] = details: human, in vivo, iv, Vdss
clinical [2] = details: human, in vivo, iv
clinical [3] = details: human, in vivo, iv; remark: listed apart in the source
clinical [4] = details: human, in vivo, iv, t1/2
clinical [5] = details: human, in vivo, iv, CL

| SMILES | Vd (clinical [1]) [L/kg] | fraction unbound (clinical [2]) | MRT (clinical [3]) [h] | half-life (clinical [4]) [h] | clearance (clinical [5]) [mL/min/kg] |
| --- | --- | --- | --- | --- | --- |
| Cc1cn([C@H]2C[C@H](N=[N+]=[N-])[C@@H](CO)O2)c(=O)[nH]c1=O [ZIDOVUDINE] | 1.8 | 0.8 | 1.2 | 1.3 | – |
| C[C@@H](O)[C@H]1C(=O)N2C(C(=O)O)=C(SCCOC(N)=O)S[C@H]12 [Sch-34343] | 0.3 | 0.35 | 0.67 | 0.8 | – |
| COC(=O)[C@H]1[C@@H](OC(=O)c2ccccc2)C[C@@H]2CC[C@H]1N2C [COCAINE] | – | 0.12 | 1 | 0.76 | – |
| N[C@@H](Cc1ccc(O)c(O)c1)C(=O)O [LEVODOPA] | – | 0.76 | 1.2 | 1.3 | – |
| CCCC(=O)OCOC(=O)C1=C(C)NC(C)=C(C(=O)OC)C1c1cccc(Cl)c1Cl (centres undefined) [CLEVIDIPINE] | 0.58 | 0.0038 | 0.07 | 0.3 | – |
| COc1ccc(Cl)cc1C(=O)NCCc1ccc(S(=O)(=O)NC(=O)NC2CCCCC2)cc1 [GLYBURIDE] | 0.08 | 0.021 | 1.6 | 2.2 | – |
| C=CCN1CC[C@]23c4c5ccc(O)c4O[C@H]2C(=O)CC[C@@]3(O)[C@H]1C5 [NALOXONE] | 1.7 | 0.54 | 1.2 | 1.1 | – |
| CCN(C(C)=O)c1cccc(-c2ccnc3c(C#N)cnn23)c1 [ZALEPLON] | 1.3 | 0.4 | 1.4 | – | – |
| CN(C)CCCN1c2ccccc2CCc2ccccc21 [IMIPRAMINE] | 12 | 0.075 | – | – | – |
| CC(CN1c2ccccc2Sc2ccccc21)N(C)C (centres undefined) [PROMETHAZINE] | – | 0.09 | – | – | – |
| N=C(N)c1ccc(C(=O)N[C@@H](Cc2ccc(O)cc2)C(=O)N2CCC(OCC(=O)O)CC2)cc1 [LAMIFIBAN] | – | 0.94 | 2.5 | 2.1 | – |
| Nc1ccc(S(=O)(=O)c2ccc(N)cc2)cc1 [DAPSONE] | 0.83 | 0.25 | 29 | – | – |
| C[C@]12C=CC(=O)C=C1CC[C@@H]1[C@@H]2[C@@H](O)C[C@@]2(C)[C@H]1CC[C@]2(O)C(=O)CO [PREDNISOLONE] | – | 0.25 | – | – | – |
| CC[C@@]1(O)C(=O)OCc2c1cc1n(c2=O)Cc2cc3c(CN(C)C)c(O)ccc3nc2-1 [TOPOTECAN] | – | 0.65 | – | – | – |
| O=C(O)C(Cl)Cl [DICHLOROACETIC ACID] | 0.19 | – | 0.6 | 0.65 | 5.3 |
| COc1ccc(C(=O)Nc2ccccc2CCC2CCCCN2C)cc1 (centres undefined) [ENCAINIDE] | 2.2 | – | 2.8 | 2.6 | 13 |
| CN1C(=O)CC[C@H]1c1cccnc1 [COTININE] | 1.1 | – | 21 | 17 | 0.89 |
| CCCCCN(CCCOC)C(=O)C(CCC(=O)O)NC(=O)c1ccc(Cl)c(Cl)c1 (centres undefined) [LOXIGLUMIDE] | 0.24 | – | 4 | 5.2 | 1 |
| N[C@H](C(=O)O)[C@@H]1CC(Cl)=NO1 [ACIVICIN] | 0.5 | – | 12 | 9.9 | 0.69 |
| CCCCN1CCCCC1C(=O)Nc1c(C)cccc1C (centres undefined) [BUPIVACAINE] | 0.84 | – | 3.3 | 3.1 | 4.3 |
| COC(=O)C1=C(C)NC(C)=C(C(=O)OCC(C)C)C1c1ccccc1[N+](=O)[O-] (centres undefined) [NISOLDIPINE] | 5.5 | – | 6.5 | 11 | 15 |
| CCCCNc1cc(C(=O)O)cc(S(N)(=O)=O)c1Oc1ccccc1 [BUMETANIDE] | 0.16 | – | 1.1 | 1.2 | 2.5 |
| CN(C)CCC=C1c2ccccc2CCc2ccccc21 [AMITRIPTYLINE] | 8.7 | – | 24 | 17 | 6.1 |
| Cc1ccc(O)c([C@H](CCN(C(C)C)C(C)C)c2ccccc2)c1 [TOLTERODINE] | 1.5 | – | 2.98 | 2.4 | 8.4 |
| C[C@H]1O[C@@H](n2cc(F)c(=O)[nH]c2=O)[C@H](O)[C@@H]1O [DOXIFLURIDINE] | 0.28 | – | 0.46 | 0.35 | 11 |
| COc1nc(C)nc(Cl)c1N=C1NCCN1 [MOXONIDINE] | 1.8 | – | 2.7 | 2.2 | 11 |

| SMILES | Vd (clinical [1]) [L/kg] | fraction unbound (clinical [2]) | MRT (clinical [3]) [h] | half-life (clinical [4]) [h] | clearance (clinical [5]) [mL/min/kg] |
| --- | --- | --- | --- | --- | --- |
| OCCN1C[C@H](O)[C@@H](O)[C@H](O)[C@H]1CO [MIGLITOL] | 0.28 | – | 2.7 | 2.3 | 1.7 |
| Cc1cc(NC(=O)C2=C(O)c3ccccc3S(=O)(=O)N2C)no1 [ISOXICAM] | 0.19 | – | 44 | 33 | 0.07 |
| CCOc1ccc(/C=C2\NCCc3cc(OCC)c(OCC)cc32)cc1OCC [DROTAVERINE] | 1.9 | – | 9 | 9.3 | 3.5 |
| C[C@@H]1CC2=CC(=O)CC[C@]2(C)[C@H]2CC[C@@]3(C)[C@@H](CC[C@@H]3O)[C@]12C | 0.8 | – | 0.67 | 0.65 | 20 |
| CC[C@]1(O)C[C@@H]2CN(CCc3c([nH]c4ccccc34)[C@@](C(=O)OC)(c3cc4c(cc3OC)N(C)[C@H]3[C@@](O)(C(N)=O)[C@H](O)[C@]5(CC)C=CCN6CC[C@]43[C@@H]65)C2)C1 [VINDESINE] | 5 | – | 38 | 35 | 2.2 |
| O=C1Cc2cc(CCN3CCN(c4nsc5ccccc45)CC3)c(Cl)cc2N1 [ZIPRASIDONE] | 1 | – | 3.3 | 3.1 | 5.1 |
| C[C@H]1O[C@H](O[C@H]2[C@H](O)[C@@H](O)[C@@H](O[C@H]3[C@H](O)[C@@H](O)C(O)O[C@@H]3CO)O[C@@H]2CO)[C@H](O)[C@@H](O)[C@@H]1N[C@H]1C=C(CO)[C@@H](O)[C@H](O)[C@H]1O (some centres undefined) [ACARBOSE] | 0.32 | – | 2.4 | 2.7 | 2.2 |
| c1ccc(C2(c3ccccc3)CC2C2=NCCN2)cc1 (centres undefined) [CIFENLINE] | 4.1 | – | 7.8 | 7.3 | 8.6 |
| Cc1nccn1CC1CCc2c(c3ccccc3n2C)C1=O (centres undefined) [ONDANSETRON] | 1.8 | – | 5.2 | 3.4 | 5.8 |
| N[C@@H](CC(=O)N1CCn2c(nnc2C(F)(F)F)C1)Cc1cc(F)c(F)cc1F [SITAGLIPTIN] | 2.8 | – | 7.78 | 12 | 6 |
| O=C1CN=C(c2ccccn2)c2cc(Br)ccc2N1 [BROMAZEPAM] | 0.85 | – | 28 | 21 | 0.51 |
| CCC1=C[C@@H]2CN(C1)Cc1c([nH]c3ccccc13)[C@@](C(=O)OC)(c1cc3c(cc1OC)N(C)[C@H]1[C@@](O)(C(=O)OC)[C@H](OC(C)=O)[C@]4(CC)C=CCN5CC[C@]31[C@@H]54)C2 (stereo in doubt; form 1) [VINORELBINE] | 12 | – | 17 | 18 | 12 |
| COc1cc2c(cc1O)CCN[C@]21CS[C@@H]2c3c(OC(C)=O)c(C)c4c(c3[C@H](COC1=O)N1[C@@H]2[C@H]2c3c(cc(C)c(OC)c3O)C[C@@H]([C@@H]1O)N2C)OCO4 [TRABECTEDIN] | 25 | – | 35 | 44 | 12 |
| C[N+](C)([O-])CCCN1c2ccccc2CCc2ccccc21 [IMIPRAMINOXIDE] | 1.9 | – | 2.6 | 1.8 | 12 |
| Cc1cc(-n2cccc2)c(S(C)(=O)=O)cc1C(=O)NC(=N)N [ENIPORIDE] | 1.1 | – | 2.3 | 2.2 | 8.2 |
| O=c1[nH]cc(F)c(=O)[nH]1 [FLUOROURACIL] | – | 0.64 | – | – | – |
| C=CCN1CCCC1CNC(=O)c1cc2[nH]nnc2cc1OC (centres undefined) [ALIZAPRIDE] | 1.6 | – | 4 | 2.8 | 6.6 |
| CC(C)[C@@H](CC[C@@H](C)[C@H]1CC[C@H]2[C@@H]3[C@H](O)C[C@H]4C[C@@H](NCCCNCCCCN)CC[C@]4(C)[C@H]3CC[C@]12C)OS(=O)(=O)O [SQUALAMINE] | 0.23 | – | 3.2 | 9.5 | 1.2 |
| CN[C@@H]1CCc2[nH]c3ccc(C(N)=O)cc3c2C1 [FROVATRIPTAN] | 3.6 | – | 22 | 24 | 2.5 |
| COc1ccc2[nH]c([S+]([O-])Cc3ncc(C)c(OC)c3C)nc2c1 (centres undefined) [OMEPRAZOLE] | 0.24 | – | 0.48 | 0.58 | 8.4 |
| CCN1CC(CCN2CCOCC2)C(c2ccccc2)(c2ccccc2)C1=O (centres undefined) [DOXAPRAM] | 1.2 | – | 3.7 | 4.1 | 5.3 |
| COc1cc2c(cc1OC)CN(c1cc(N)c3cc(OC)c(OC)cc3n1)CC2 [ABANOQUIL] | 6.3 | – | 7.6 | 5.9 | 14 |
| N[C@@H](C(=O)N[C@@H]1C(=O)N2C(C(=O)O)=C(CSc3c[nH]nn3)CS[C@H]12)c1ccc(O)cc1 [CEFATRIZINE] | 0.22 | – | 1.1 | 1.2 | 3.3 |
| CN1Cc2c(N)cccc2C(c2ccccc2)C1 (centres undefined) [NOMIFENSINE] | 6 | – | 4.5 | 6.5 | 22 |
| COc1cc(OC)c(C(=O)CCCN2CCCC2)c(OC)c1 [BUFLOMEDIL] | 1.3 | – | 3.9 | 3.3 | 5.6 |
| CCN1C[C@H]2CN(C)C[C@H](C1)C2OC(=O)c1ccc(Cl)cc1 (some centres undefined) | 9 | – | 8.8 | 8.6 | 17 |
